The conditions of this data set: Liquid, ATR infrared spectroscopy.

Structures are written as SMILES. ± gives the expanded uncertainty stated by the source.

With `O=C=O` [carbon dioxide], the “vapor or sublimation pressure” value runs as follows: (295.45 K) 6020 ± 490 kPa; (297.05 K) 6240 ± 500 kPa; (299.05 K) 6520 ± 530 kPa; (302.65 K) 7090 ± 570 kPa; (303.25 K) 7180 ± 580 kPa.

The values above are taken from the NIST ThermoML archive (doi:10.1016/j.jct.2015.09.024).
